Results as given in PubChem BioAssay (NCI).
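How tested: cells in 96-well plates exposed to compound for 48 hours at five concentrations. The concentration for 50% growth inhibition is given as GI50. TGI is the concentration that stops growth completely.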

Assays:
Assay in all cases: NCI tumour cell line growth inhibition, 48 h
KM12 colon = tested on: KM12 colon
HCC-2998 colon = tested on: HCC-2998 colon
A549 NSCLC = tested on: A549 NSCLC
DU-145 prostate = tested on: DU-145 prostate
PC-3 prostate = tested on: PC-3 prostate
786-0 renal = tested on: 786-0 renal
SR leukemia = tested on: SR leukemia
NCI-H226 lung = tested on: NCI-H226 lung
RXF 393 renal = tested on: RXF 393 renal
HS 578T breast = tested on: HS 578T breast
SK-OV-3 ovarian = tested on: SK-OV-3 ovarian
UO-31 renal = tested on: UO-31 renal
NCI-H23 lung = tested on: NCI-H23 lung
SNB-19 CNS = tested on: SNB-19 CNS
TK-10 renal = tested on: TK-10 renal
UACC-257 melanoma = tested on: UACC-257 melanoma
MCF7 breast = tested on: MCF7 breast
MDA-MB-435 = tested on: MDA-MB-435
HOP-92 NSCLC = tested on: HOP-92 NSCLC
K-562 leukemia = tested on: K-562 leukemia
OVCAR-8 ovarian = tested on: OVCAR-8 ovarian
COLO 205 colon = tested on: COLO 205 colon
HCT-116 colon = tested on: HCT-116 colon
CAKI-1 renal = tested on: CAKI-1 renal
A498 renal = tested on: A498 renal
HT29 colon = tested on: HT29 colon
SK-MEL-5 melanoma = tested on: SK-MEL-5 melanoma
HL-60(TB) leukemia = tested on: HL-60(TB) leukemia
MALME-3M melanoma = tested on: MALME-3M melanoma
SN12C renal = tested on: SN12C renal
NCI-H460 lung = tested on: NCI-H460 lung
SW-620 colon = tested on: SW-620 colon
HCT-15 colon = tested on: HCT-15 colon
BT-549 breast = tested on: BT-549 breast
MOLT-4 leukemia = tested on: MOLT-4 leukemia
ACHN renal = tested on: ACHN renal
NCI/ADR-RES ovarian = tested on: NCI/ADR-RES ovarian
SF-295 CNS = tested on: SF-295 CNS
OVCAR-3 ovarian = tested on: OVCAR-3 ovarian
HOP-62 NSCLC = tested on: HOP-62 NSCLC
U251 CNS = tested on: U251 CNS
EKVX NSCLC = tested on: EKVX NSCLC
LOX IMVI melanoma = tested on: LOX IMVI melanoma
UACC-62 melanoma = tested on: UACC-62 melanoma
MDA-MB-231 breast = tested on: MDA-MB-231 breast
SK-MEL-28 melanoma = tested on: SK-MEL-28 melanoma
SF-539 CNS = tested on: SF-539 CNS
OVCAR-4 ovarian = tested on: OVCAR-4 ovarian
T-47D breast = tested on: T-47D breast
OVCAR-5 ovarian = tested on: OVCAR-5 ovarian
SNB-75 CNS = tested on: SNB-75 CNS
SF-268 CNS = tested on: SF-268 CNS
M14 melanoma = tested on: M14 melanoma
IGROV1 ovarian = tested on: IGROV1 ovarian
CCRF-CEM leukemia = tested on: CCRF-CEM leukemia

With CCN(CC)c1ccc(C(=N)c2ccc(N(C)C)cc2)cc1 the GI50 (KM12 colon) was 171 nM, the TGI (KM12 colon) was 4.05 µM and the GI50 (HCC-2998 colon) was 1850 nM. It also gave a TGI (HCC-2998 colon) of 5.69 µM, a GI50 (A549 NSCLC) of 1620 nM and a TGI (A549 NSCLC) of 11.4 µM. For the same compound, the GI50 (DU-145 prostate) was 1700 nM, the TGI (DU-145 prostate) was 7.18 µM and the GI50 (PC-3 prostate) was 284 nM. It also gave a TGI (PC-3 prostate) of 7.05 µM, a GI50 (786-0 renal) of 1710 nM and a TGI (786-0 renal) of 4.45 µM. It also gave a GI50 (SR leukemia) of 301 nM, a TGI (SR leukemia) of 2800 nM and a GI50 (NCI-H226 lung) of 1500 nM. It also gave a TGI (NCI-H226 lung) of 5.46 µM, a GI50 (RXF 393 renal) of 1180 nM and a TGI (RXF 393 renal) of 4.02 µM. It also gave a GI50 (HS 578T breast) of 190 nM, a TGI (HS 578T breast) of 2670 nM and a GI50 (SK-OV-3 ovarian) of 2150 nM. It also gave a TGI (SK-OV-3 ovarian) of 10.4 µM, a GI50 (UO-31 renal) of 1450 nM and a TGI (UO-31 renal) of 7.73 µM. The GI50 (NCI-H23 lung) was 218 nM, the TGI (NCI-H23 lung) was 3.19 µM and the GI50 (SNB-19 CNS) was 2190 nM. The TGI (SNB-19 CNS) was 10.1 µM, the GI50 (TK-10 renal) was 2410 nM and the TGI (TK-10 renal) was 8.02 µM. It also gave a GI50 (UACC-257 melanoma) of 1360 nM, a TGI (UACC-257 melanoma) of 5.11 µM and a GI50 (MCF7 breast) of 197 nM. The TGI (MCF7 breast) was 7.25 µM, the GI50 (MDA-MB-435) was 96.2 nM and the TGI (MDA-MB-435) was 1050 nM. The GI50 (HOP-92 NSCLC) was 1050 nM, the TGI (HOP-92 NSCLC) was 4.22 µM and the GI50 (K-562 leukemia) was 127 nM. It also gave a TGI (K-562 leukemia) of 12.8 µM, a GI50 (OVCAR-8 ovarian) of 1940 nM and a TGI (OVCAR-8 ovarian) of 6.51 µM. The GI50 (COLO 205 colon) was 197 nM, the TGI (COLO 205 colon) was 3.06 µM and the GI50 (HCT-116 colon) was 155 nM. The TGI (HCT-116 colon) was 3.39 µM, the GI50 (CAKI-1 renal) was 246 nM and the TGI (CAKI-1 renal) was 7.73 µM. It also gave a GI50 (A498 renal) of 1170 nM, a TGI (A498 renal) of 6.32 µM and a GI50 (HT29 colon) of 39.9 nM. For the same compound, the TGI (HT29 colon) was 4.02 µM, the GI50 (SK-MEL-5 melanoma) was 159 nM and the TGI (SK-MEL-5 melanoma) was 1940 nM. It also gave a GI50 (HL-60(TB) leukemia) of 886 nM, a TGI (HL-60(TB) leukemia) of 15.9 µM and a GI50 (MALME-3M melanoma) of 205 nM. It also gave a TGI (MALME-3M melanoma) of 4.76 µM, a GI50 (SN12C renal) of 2360 nM and a TGI (SN12C renal) of 9.14 µM. For the same compound, the GI50 (NCI-H460 lung) was 1690 nM, the TGI (NCI-H460 lung) was 10.8 µM and the GI50 (SW-620 colon) was 174 nM. The TGI (SW-620 colon) was 5.63 µM, the GI50 (HCT-15 colon) was 170 nM and the TGI (HCT-15 colon) was 7.93 µM. The GI50 (BT-549 breast) was 227 nM, the TGI (BT-549 breast) was 966 nM and the GI50 (MOLT-4 leukemia) was 1170 nM. For the same compound, the TGI (MOLT-4 leukemia) was 4.55 µM, the GI50 (ACHN renal) was 2340 nM and the TGI (ACHN renal) was 12 µM. For the same compound, the GI50 (NCI/ADR-RES ovarian) was 187 nM, the TGI (NCI/ADR-RES ovarian) was 2940 nM and the GI50 (SF-295 CNS) was 161 nM. It also gave a TGI (SF-295 CNS) of 2880 nM, a GI50 (OVCAR-3 ovarian) of 156 nM and a TGI (OVCAR-3 ovarian) of 4.07 µM. For the same compound, the GI50 (HOP-62 NSCLC) was 1550 nM, the TGI (HOP-62 NSCLC) was 12.2 µM and the GI50 (U251 CNS) was 1330 nM. It also gave a TGI (U251 CNS) of 7.57 µM, a GI50 (EKVX NSCLC) of 2040 nM and a TGI (EKVX NSCLC) of 16.5 µM. The GI50 (LOX IMVI melanoma) was 1210 nM, the TGI (LOX IMVI melanoma) was 7.22 µM and the GI50 (UACC-62 melanoma) was 1350 nM. For the same compound, the TGI (UACC-62 melanoma) was 7.03 µM, the GI50 (MDA-MB-231 breast) was 1330 nM and the TGI (MDA-MB-231 breast) was 3.87 µM. The GI50 (SK-MEL-28 melanoma) was 384 nM, the TGI (SK-MEL-28 melanoma) was 7.13 µM and the GI50 (SF-539 CNS) was 1630 nM. The TGI (SF-539 CNS) was 4.18 µM, the GI50 (OVCAR-4 ovarian) was 2750 nM and the TGI (OVCAR-4 ovarian) was > 39.5 µM. For the same compound, the GI50 (T-47D breast) was 1270 nM, the TGI (T-47D breast) was 9.42 µM and the GI50 (OVCAR-5 ovarian) was 2040 nM. For the same compound, the TGI (OVCAR-5 ovarian) was 6.78 µM, the GI50 (SNB-75 CNS) was 2260 nM and the TGI (SNB-75 CNS) was > 21.7 µM. It also gave a GI50 (SF-268 CNS) of 220 nM, a TGI (SF-268 CNS) of 5.42 µM and a GI50 (M14 melanoma) of 167 nM. For the same compound, the TGI (M14 melanoma) was 2060 nM, the GI50 (IGROV1 ovarian) was 949 nM and the TGI (IGROV1 ovarian) was 13 µM. For the same compound, the GI50 (CCRF-CEM leukemia) was 1960 nM and the TGI (CCRF-CEM leukemia) was 97.8 µM.
